The results in this text go back to US20070059242A1, “METHODS TO IDENTIFY THERAPEUTIC AGENTS” (priority 2005, published 2007).

Data set [1] deals with J774A.1 macrophages. As to the kind of experiment: Uptake and localization in macrophages by fluorescence microscopy. Format: cell-based, murine. The note with it: 50 μM dansyl derivative, 5 min to 1 h; not complexed with LDL. How it is done: J774A.1 cells were plated in 8-well chambered slides (Nalge Nunc International). Cells were gently washed twice with PBS, pH 7.4 before 5 min or 1 h exposure to 50 μM dansyl derivative of cholesterol ozonation product 5d or 5e, dansyl cholesterol derivative 9c or 9d, or dansyl hydrazine diluted in media without FCS (0.05% v/v final DMSO concentration). [drawing 28] Media was removed by aspiration and cells were fixed immediately in 95% ice cold methanol for 5 min. Cells were mounted in glycerol containing Antifade reagent (Molecular Probes). Fluorescence images were documented using DeltaVision Deconvolution microscope (API, Issaquah WA) equipped with a Photometrics CH350L liquid cooled CCD camera attached to an Olympus IX—70 inverted microscope. […] All images were deconvolved using constrained iterative algorithms (10 iterations) of DeltaVision software (softWoRx, v2.5). The deconvolved images were subsequently processed using softWoRx, v2.5.
In some experiments, murine macrophage RAW 264.7 (ECACC 91062702) cells were grown in RPMI (Gibco) with 10% FCS at 37° C. with 5% CO2. For fluorescence imaging, cells were incubated on cover slips in 6-well chambered plates (Costar) for 12 h, gently washed 3 times in PBS at pH 7.4, and incubated with 50 μM dansyl derivative of cholesterol ozonation product 5d or 5e, dansyl cholesterol derivative 9c or 9d, in RPMI with 10% FCS for 5, 15, 30, and 60 min. A solution of the dansyl derivative was then added in DMSO [final DMSO, 0.05% (v/v)]. Media was removed by aspiration, and cells were washed twice with PBS, followed by fixing in paraformaldehyde (3.7% in PBS) for 10 min. Cover slips were mounted in MOWIOL 4-88 (Calbiochem). Microscopy was performed using an inverted Zeiss Axioscope 2 Plus fluorescence microscope, and images were obtained with a Zeiss Axiocam digital camera using Axiovision software (version 3.1). The data were collected using a 63× oil immersion lens and DAPI filter (excitation 360/emission 460), and images were processed with Axiovision software and Adobe software (Photoshop 6.0).

The subject of data set [2] is leukocyte cell lines. As to the kind of experiment: Cytotoxicity to leukocyte cell lines (similar procedures). Format: cell-based. How it is done: (§1) Cytotoxicity assays. WI-L2 human B-lymphocyte line, HAAE-1 human abdominal aortic endothelial line, MH-S murine alveolar macrophage line, and J774A.1 murine tissue macrophage line were obtained from the ATCC. Human aortic endothelial cells (HAEC) and human vascular smooth muscle cells (VSMS) were obtained from Cambrex Bio Science. Jurkat E6-1T-lymphocytes were kindly provided by Dr. J. Kaye (The Scripps Research Institute). Cells were cultured in ATCC-recommended media with 10% fetal calf serum. Cells were incubated in a controlled atmosphere at 37° C., with 5 or 7% CO2. For lactate dehydrogenase (LDH) release assays, adherent cells were harvested either by addition of 0.05% trypsin/EDTA or by scraping. The cells obtained were seeded onto 96-well microtiter plates (25,000 cells/well) and allowed to recover for 24-48 h. Cells were washed gently and media replaced with fresh media containing 5% fetal calf serum. […] Cytotoxicity was then determined by measuring lactate dehydrogenase (LDH) release from cells in culture. […] 100% Cytotoxicity was defined as the maximum amount of LDH released by dead cells as shown by trypan blue exclusion, or the highest amount of LDH detected upon lysis of cells by 0.9% Triton X-100. The IC50 values were determined by comparison of the raw duplicate data for concentration versus cytotoxicity (%) to non-linear regression analysis (Hill plot) using Graphpad v3.0 software for Macintosh.

For data set [3], the system named is THP-1 monocytes. As to the kind of experiment: Monocyte morphology changes (differentiation into macrophages). Format: cell-based, human. Conditions: 12.5 or 25 μM, 7 days. As for the experimental part:
THP-1 monocytes in suspension were plated in 8-well chambered slides. […] Media containing appropriate treatment compounds was replaced after 4 days. […]

The test system of data set [4] is WI-L2 human B-lymphocyte line. As to the kind of experiment: LDH release cytotoxicity assay, WI-L2. The data set is classed as cell-based. Conditions: B-cell (WI-L2) cell line, concentration range of FIG. 6A. As for the experimental part:
as §1
The following cell lines were employed in this study: a human B-lymphocyte (WI-L2) described in Levy et al., Cancer 22, 517 (1968); a T-lymphocyte cell line (Jurkat E6.1) described in Weiss et al., J. Immunol. 133, 123 (1984); a vascular smooth muscle cell line (VSMC) and an abdominal aorta endothelial (HAEC) cell line described in Folkman et al., Proc. Natl. Acad. Sci. U.S.A. 76, 5217 (1979); a murine tissue macrophage (J774A.1) described in Ralph et al., J. Exp. Med. 143, 1528 (1976); and an alveolar macrophage cell line (MH-S) described in Mbawuike et al., J. Leukoc. Biol. 46, 119 (1989).
On the technique in general: Release of lactate dehydrogenase indicates damage to the cell membrane.

The test system of data set [5] is T-lymphocyte cell line (Jurkat E6.1). As to the kind of experiment: LDH release cytotoxicity assay, Jurkat. The data set is classed as cell-based. The note with it: T-cell (Jurkat) cell line, concentration range of FIG. 6B. How it is done: as §1, with “h.” for “h. Cells were washed gently and media replaced with fresh media containing 5% fetal calf serum.”, “Macintosh. […]” for “Macintosh.”

Data set [6] deals with E-selectin. As to the kind of experiment: Endothelial adhesion molecule expression ELISA, E-selectin. The data set is classed as cell-based, human. The note with it: HAAE-1, not complexed with LDL. How it is done: (§2) Endothelial cell surface adhesion molecule expression was measured by ELISA, using anti-human CD54 (ICAM-1), CD106 (VCAM-1) and CD62E (E-Selectin) antibodies (Leinco Technologies, Inc., St. Louis, Mo.). The ELISA method was modified from previously described procedures.
(§3) Cells were then incubated with antibodies to VCAM-1, E-selectin, or ICAM-1 diluted 1:400 in PBS containing 5% FCS at 37° C. for 30 min. Wells were washed two times with PBS, then incubated with horseradish peroxidase (HRP)-conjugated goat anti-mouse IgG (Southern Biotechnology Associates, Birmingham, Ala., USA) in PBS/5% FCS at 37° C. for 30 min. The wells were washed four times with PBS, then incubated with H2O2/3,3′,5,5′-tetramethyl-benzidine peroxidase substrate (Pierce Chemical, Rockford, Ill., USA) for 30 min in the dark. The reaction was stopped by adding 25 μl of 8 N H2SO4, and the plates read on a microplate reader, blanking on wells stained with only secondary antibody. Each assay was performed in triplicate and the data are reported as the mean±SEM as a percentage of the expression level of the vehicle. To study the effect of cholesterol ozonation product 5a concentration (5-50 μM) on E-selectin expression, the assay was performed in an identical fashion as described above, with each point being the mean±SEM of at least duplicate measurements.
(ELISA stands for enzyme-linked immunosorbent assay.)

Data set [7] deals with VCAM-1. As to the kind of experiment: Endothelial adhesion molecule expression ELISA, VCAM-1. The note with it: HAAE-1, not complexed with LDL. The data set is classed as cell-based, human. As for the experimental part:
as §2, §3

The test system of data set [8] is ICAM-1. As to the kind of experiment: Endothelial adhesion molecule expression ELISA, ICAM-1. Format: cell-based, human. Conditions: HAAE-1, not complexed with LDL. How it is done:
as §2, §3

In the case of `C[C@H](CCCC(=O)NS(=O)(=O)c1cccc2c(N(C)C)cccc12)[C@H]1CCC2C3C(CC[C@@]21C)C1(C)CC[C@H](O)CC1(O)[C@@H]3C=O` (stereo partly drawn) [5e], the “uptake and localization in macrophages” value in data set [1] is “initial punctate cytosolic accumulation”. As to `CC(C)CCC[C@@H](C)[C@H]1CCC2C(CC=O)C([C@@]3(C)CCC=CC3=O)CC[C@@]21C` (stereo partly drawn) [6a, 5-Oxo-5,6-secocholest-3-en-6-al], in data set [2], the “cytotoxic to leukocyte cell lines” value was “cytotoxic”. Regarding `CC(C)CCC[C@@H](C)[C@H]1CC[C@H]2[C@@H]3C(=O)C=C4C[C@@H](O)CC[C@]4(C)[C@H]3CC[C@]12C` [7-KC, 7-ketocholesterol, reference compound], in data set [3], the “THP-1 cell adherence (differentiation into macrophages)” value is listed as “began to adhere after 4 days”.

Regarding `CC(C)CCC[C@@H](C)[C@H]1CCC2C3C(CC[C@@]21C)[C@@]1(C)CCC=C[C@@]1(O)[C@@H]3C=O` (stereo partly drawn) [7a, 5β-Hydroxy-B-norcholest-3-ene-6β-carboxaldehyde], in data set [2], the “cytotoxic to leukocyte cell lines” value is on record as “cytotoxic”. Still for that read-out and setting: for `CC(C)CCC[C@@H](C)[C@H]1CCC2C3C(CC[C@@]21C)[C@@]1(C)CCC=C[C@@]1(O)[C@@H]3CO` (stereo partly drawn) [7c] the value was “cytotoxic”. Regarding `C[C@H](CCCC(=O)NS(=O)(=O)c1cccc2c(N(C)C)cccc12)[C@H]1CCC2C3CC=C4C[C@@H](O)CCC4(C)C3CC[C@@]21C` (stereo partly drawn) [9d, reference compound], the “uptake and localization in macrophages” value in data set [1] is “minimal fluorescence”.

For `CC(C)CCC[C@@H](C)[C@H]1CCC2[C@H](CC(=O)O)C([C@@]3(C)CC[C@H](O)CC3=O)CC[C@@]21C` (stereo partly drawn) [10a], the “cytotoxic to leukocyte cell lines” value in data set [2] is recorded as “cytotoxic”. Same read-out and setting: for `CC(C)CCC[C@@H](C)[C@H]1CCC2[C@H](CC=O)C([C@@]3(C)CCCCC(=O)O3)CC[C@@]21C` (stereo partly drawn) [11a] the value was “cytotoxic”.

Consider `CC(C)CCC[C@@H](C)[C@H]1CCC2C3C(C=O)=C4C=CCC[C@]4(C)C3CC[C@@]21C` (stereo partly drawn) [12a, B-norcholest-3,5-diene-6-carboxaldehyde], for which the “cytotoxic to leukocyte cell lines” value in data set [2] is recorded as “cytotoxic”.

Turning to `CC(C)CCC[C@@H](C)[C@H]1CC[C@H]2[C@@H]3CC=C4C[C@@H](O)CC[C@]4(C)[C@H]3CC[C@]12C` [compound 3, cholesterol, reference compound], the cytotoxicity entry in data set [4] and in data set [5] was “No cytotoxicity” each time. In data set [6], the “selectin (E-selectin) expression” value is listed as “no effects”. Moreover, the “integrin (VCAM-1) expression” value in data set [7] is recorded as “no effects”. For the same compound, in data set [8], the “integrin (ICAM-1) expression” value was “no effects”. Also, the “THP-1 cell adherence (differentiation into macrophages)” value in data set [3] is “induced no cell adherence”.
